Test results published in patent US6774123B1, “Methods and compositions for inactivating viruses” (priority 1998, dated 2004).

Experiments:
[1] = system: Porcine Parvovirus (PPV); experiment: Inactivation of porcine parvovirus (PPV), TCID50 titer on PT-1 cells; format: cell-based; settings: dropped from 7.1 logs, 3 hours, room temperature, dimer 0.1%, detergent = 1% Tween 80, 0.3% TNBP (FIG. 3)
Method: PPV is a non-enveloped virus; it is known to be inactivated with ethyleneimine dimer. The ability of ethyleneimine dimer to inactivate PPV in the presence of a solvent-detergent mixture was determined as follows.
A detergent stock solution (1% Tween 80, 0.3% TNBP in 0.1 M MOPS, 50 mM NaCl, pH 7.0) was prepared. A 5% dimer stock solution was prepared with 250 μl of 0.1 M MOPS, NaCl 50 mM, pH 7.0, and 12.5 μl dimer (ethyleneimine dimer, Dalton Chemical Laboratories, Inc., lot number LB-4-69A-03319). In addition, a quenching solution with a sodium thiosulphate concentration of 0.1M in 0.1 M MOPS, pH 7.0, was prepared.
(a) 9 ml 0.1 M MOPS, 50 mM NaCl, pH 7.0 was combined with 200 μl dimer stock solution. 1.0 ml PPV (PPV stock #1 filtered through 0.22μ filter) was added. The concentration of dimer in the resulting solution was 0.1%. The mixture was incubated at room temperature for a given period of time (0-3 hours). After the given time period, 1.85 ml of the solution was removed, and 0.15 ml quenching solution was added. Quenching occurred over a period of 30 minutes at room temperature. The concentration of sodium thiosulphate in the final solution was […].
(b) 9 ml detergent stock solution was combined with 1.0 ml PPV. The mixture was incubated for 0-3 hours at room temperature. A 2 ml aliquot was removed at each time point for assay. […]

[2] = system: bacteriophage MS2; experiment: Kinetics of bacteriophage MS2 infectivity inactivation; format: cell-based; settings: 1 mM trimer, 23° C., pH 7.13, after 30 minutes of incubation (FIG. 1)
Method: Ethyleneimine trimer is known to inactivate the infectivity of bacteriophage MS2. The ability of the trimer to inactivate the infectivity of MS2 in the presence of TNBP and Tween 80 was determined as follows.
A stock of bacteriophage MS2 (ATCC number 15597-B1) was prepared according to conventional procedures (D. L. Rogerson and G. Rushizky, Analytical Biochemistry 67: 675-678 (1975)). Purification was performed by sedimentation of bacteriophage in the presence of 6% polyethylene glycol (PEG 8000, USB) as described in K. Yamamoto and B. Alberts, Virology 40: 734-744 (1970).
Purified phage were suspended in 0.15 M NaCl solution (final bacteriophage stock titer was 5×10^13 pfu/ml) and stored at 4° C. The infectivity (titer) of phage suspension was determined by conventional bilayer technique on LB agar with the F^+ strain of Escherichia coli C-3000 (ATCC number 15597).
Ethyleneimine trimer was prepared as described above. […]
Aliquots of the reaction mixture incubated at 23° C. were taken at five defined time intervals. MS2 infectivity inactivation (log S0/St, where S0 and St are the infectivity (titer) of the suspension before and t min after the start of inactivation) was determined at these five points.

Structure (SMILES) | titer of the virus (TCID50) after treatment [1] [logs] | MS2 infectivity inactivation (log S0/St), trimer alone compared with trimer plus solvent-detergent [2]
NCCN1CC1 [dimer, ethyleneimine dimer] | 3.2 | –
NCCNCCN1CC1 [trimer, ethyleneimine trimer] | – | essentially the same infectivity inactivation
